These results are taken from patent publication US20180353443A1, “CURCUMIN-BASED COMPOSITIONS & METHODS OF USE THEREOF” (priority 2015, published 2018).

Common to all, as to format: cell-based
Experiment [1] concerns NFkB-p65. In words: Western blot of cytoplasmic and nuclear NFkB-p65 (nucleotranslocation) in BV2 cells. As to conditions: 22.0 μg/ml curcuminoid, LPS induction, FIGS. 4 and 5. On the procedure: (§1) Western blot analysis was performed in multiple varying formats before optimization was achieved. The BV2 microglia cell line was cultured in Dulbecco's Modified Eagle's Medium (DMEM)—complete medium. The complete medium consisted of DMEM, 1% Ampicillin, and 10% Fetal Bovine Serum (FBS). BV2 microglia cells, at a cell count of approximately 2×10^6, were seeded in each well (6 wells per plate) with 2.0 ml complete medium and cultured overnight in a ThermaForma HepaFilter Series II Co2 Incubator at 37° Celsius. Upon establishing confluence, subconfluent cells were washed out and the wells were prepared with drug pre-treatment after overnight incubation.
(§2) The test drugs (curcuminoids) were procured as follows: curcumin I research standard (03926) (ChromaDex Irvine, Calif. USA) (97.7% purity); curcumin II research standard (04230) (ChromaDex Irvine, Calif. USA) (97.3%); curcumin III research standard (B6938) (Sigma-Aldrich St. Louis, Mo., USA) (97.7% purity); curcumin extract (curcumin I—77.7%, curcumin II—16.9%, curcumin III—0.9%) research standard (03928) (ChromaDex Irvine, Calif. USA) (95.3% purity); and Lipopolysaccharide (LPS) from E. Coli (L2630) (Sigma-Aldrich St. Louis, Mo., USA).
(§3) Curcuminoids are not soluble in aqueous medium due to their hydrophobic characteristic. However, curcuminoid extracts are soluble in polar organic solvents, such as DMSO and acetone. In this Example, each curcuminoid preparation was first dissolved in DMSO. DMSO was used in the drug preparation at 0.2%. The drug/DMSO solution was subsequently dissolved in DMEM to achieve a final drug concentration for each curcuminoid preparation tested—22.0 μg/ml curcuminoid. […]
(§4) Total protein concentration for each fraction was determined using a Bio Rad Protein Assay that is based on the Bradford Assay (dye-binding method). […]
(§5) The targets analyzed in the Western Blot included NFkB-p65 and its nucleocytoplasmic translocation, as well as kinases (including MSK1) and their covalent modifications upstream of and involved in the regulation of NFkB. […]
On the technique in general: Immunoblotting shows a protein as a band on a membrane.

For experiment [2], the system named is NFkB-p65 serine 276 phosphorylation. In words: Western blot of NFkB-p65 phosphorylated at serine 276 in BV2 cells. Conditions: 22.0 μg/ml curcuminoid, LPS induction, FIGS. 6 and 7. On the procedure:
as §1, §2, §3, §4, §5

Experiment [3] has as its system miRNA148a. Put plainly: RT qPCR of miRNA148a levels in BV2 cells. As to conditions: 22 μg/ml curcuminoid, 30 min pre-treatment, with or without LPS, FIG. 3. On the procedure: Reverse transcriptase (RT) quantitative PCR (RT qPCR) was performed to measure miRNA 148a levels in cells that were treated with curcumin I, II, or III, or a control. More particularly, six-well plates were seeded with BV2 cells at a concentration of about 1.5×10^6 BV2 cells per well. Drug (curcumin I, II, or III) treatment was carried out in the same manner as was executed for the western blot experimentation described in Example 3 below. Ten wells were prepared and, upon confluence, the next day the drug treatment was designed to evaluate basal influence of curcumin extract, curcumin I, curcumin II, curcumin III, as well as each curcumin drug with LPS stimulation. After 30 minutes of incubation with the drug treatment, LPS was used to induce the cells in each well labelled to be induced by LPS.
RNA was ultimately extracted from the cells to determine the levels of miRNA148a. A Qiagen miRNeasy Mini Kit (Cat. No. 217004) was used to extract total RNA along with miRNA. The miRNA was reverse transcribed to cDNA using a gene-specific RT primer and the miScript II RT Kit by Qiagen (Cat. No. 218161). An miRNA148a primer assay was acquired from Qiagen (Cat. No. 00003556). […]
(In general: In qPCR the cycle at which signal appears reflects the starting amount.)

Experiment [4] relates to MSK1 serine 376 phosphorylation. Put plainly: Western blot of MSK1 phosphorylated at serine 376 in BV2 cells. Conditions: 22.0 μg/ml curcuminoid, LPS induction, FIGS. 10 and 11. On the procedure:
as §1, with “incubation. […]” for “incubation.”
as §4, §5

For experiment [5], the system named is MSK1. In words: Western blot of cytoplasmic and nuclear MSK1 protein levels in BV2 cells. Conditions: 22.0 μg/ml curcuminoid, LPS induction. On the procedure: as §1, with “incubation. […]” for “incubation.”
as §4, §5

As for `COc1cc(/C=C/C(=O)/C=C(O)/C=C/c2ccc(O)c(OC)c2)ccc1O` [curcumin I, (1E,6E)-1,7-Bis(4-hydroxy-3-methoxyphenyl)-1,6-heptadiene-3,5-dione], the “inhibition of NFkB-p65 nucleotranslocation (cytosolic and nuclear NFkB-p65)” value (from here on “inhibition … (cytosolic and nuclear NFkB-p65)”) in experiment [1] is “not significantly inhibited”. The “inhibition of NFkB-p65 serine 276 phosphorylation” value in experiment [2] is listed as “moderately inhibit”.
With `COc1cc(/C=C/C(=O)CC(=O)/C=C/c2ccc(O)cc2)ccc1O` [curcumin II, (1E,6E)-1-(4-Hydroxy-3-methoxyphenyl)-7-(4-hydroxyphenyl)hepta-1,6-diene-3,5-dione], the “effect on miRNA148a levels” value in experiment [3] is given as “inhibits”. Further, the “inhibition … (cytosolic and nuclear NFkB-p65)” value in experiment [1] is “not significantly inhibited”. Also, the “inhibition of NFkB-p65 serine 276 phosphorylation” value in experiment [2] is reported as “moderately inhibit”. Besides, the “inhibition of MSK1 serine 376 phosphorylation” value in experiment [4] is recorded as “inhibit”.
As for `O=C(/C=C/c1ccc(O)cc1)CC(=O)/C=C/c1ccc(O)cc1` [curcumin III, (1E,6E)-1,7-bis(4-hydroxyphenyl)hepta-1,6-diene-3,5-dione], the “effect on miRNA148a levels” value in experiment [3] is “significantly increase”. Moreover, the “inhibition … (cytosolic and nuclear NFkB-p65)” value in experiment [1] was “not significantly inhibited”. For the same molecule, in experiment [2], the “inhibition of NFkB-p65 serine 276 phosphorylation” value is “moderately inhibit”. Besides, the “effect on MSK1 protein levels in the cytoplasm” value in experiment [5] (FIG. 8) was “significantly inhibited and downregulated”. Besides, in experiment [5] (FIG. 9), the “effect on MSK1 protein levels in the nucleus” value is “significantly inhibited and downregulated”. The “inhibition of MSK1 serine 376 phosphorylation” value in experiment [4] was “inhibition”.
